Entries after “also recorded” stand apart in the source; their conditions may differ.
System: lashes and adjacent hairs of patients having glaucoma
Test: Observation of lashes and adjacent hairs in glaucoma patients treated in only one eye
Assay type: in vivo, human
Settings: glaucoma patients taking the drug in only one eye; gross inspection and slit lamp biomicroscope
Description: In the course of treating patients having glaucoma, treatment may only be appropriate in one eye. […] The lash appearance on the lids of the treated eyes would have appeared quite attractive if it represented a bilateral phenomenon. As a result of its asymmetric nature, the long lashes on one side could be construed as disturbing from a cosmetic standpoint. A systemic examination was preformed as a result of the asymmetric phenomenon. It soon became apparent that this altered appearance was not an isolated finding. […] Definite differences could be identified to varying degrees in the lashes and adjacent hairs of all patients who were taking the drug on a unilateral basis for longer than 6 months.
The changes in the lashes were apparent on gross inspection in several patients once attention was focused on the issue. In those with light colored hair and lashes, the differences were only seen easily with the aid of the high magnification and lighting capabilities of the slit lamp biomicroscope. In the course of glaucoma follow-up examination, attention is generally immediately focused on the eye itself. As a result of the high power magnification needed only one eye is seen at a time and the eye is seen at a high enough power that the lashes are not in focus. […]

CCNC(=O)CCC/C=C\C[C@@H]1[C@@H](/C=C/[C@@H](O)CCc2ccccc2)[C@H](O)C[C@@H]1O [bimatoprost]
lash / hair growth in treated eye versus non-treated eye: longer, thicker, and fuller in the treated eye than in the non-treated eye; also recorded: hair growth is stimulated

Source: US7964596B2, “Therapeutic compounds” (Allergan, Inc., priority 2008, dated 2011)
